In patent publication US20060009470A1, “Method for specifically potentiating N-type Ca2+ channel activity” (Shuji KANEKO, priority 2001, published 2006):

Assays:
Type in all cases: cell-based, rabbit
[1] = target: T1, α1B channel (voltage-dependent calcium channel α1B with α2δ1 and β1b) (Oryctolagus cuniculus, UniProt Q05152); assay: two electrode voltage-clamp, Ba2+ current in Xenopus oocytes expressing α1B channel
T1 construct: expressed in transfected cells; host or cells: Xenopus laevis oocytes injected with mRNAs
T1 sequence (Q05152 whole entry): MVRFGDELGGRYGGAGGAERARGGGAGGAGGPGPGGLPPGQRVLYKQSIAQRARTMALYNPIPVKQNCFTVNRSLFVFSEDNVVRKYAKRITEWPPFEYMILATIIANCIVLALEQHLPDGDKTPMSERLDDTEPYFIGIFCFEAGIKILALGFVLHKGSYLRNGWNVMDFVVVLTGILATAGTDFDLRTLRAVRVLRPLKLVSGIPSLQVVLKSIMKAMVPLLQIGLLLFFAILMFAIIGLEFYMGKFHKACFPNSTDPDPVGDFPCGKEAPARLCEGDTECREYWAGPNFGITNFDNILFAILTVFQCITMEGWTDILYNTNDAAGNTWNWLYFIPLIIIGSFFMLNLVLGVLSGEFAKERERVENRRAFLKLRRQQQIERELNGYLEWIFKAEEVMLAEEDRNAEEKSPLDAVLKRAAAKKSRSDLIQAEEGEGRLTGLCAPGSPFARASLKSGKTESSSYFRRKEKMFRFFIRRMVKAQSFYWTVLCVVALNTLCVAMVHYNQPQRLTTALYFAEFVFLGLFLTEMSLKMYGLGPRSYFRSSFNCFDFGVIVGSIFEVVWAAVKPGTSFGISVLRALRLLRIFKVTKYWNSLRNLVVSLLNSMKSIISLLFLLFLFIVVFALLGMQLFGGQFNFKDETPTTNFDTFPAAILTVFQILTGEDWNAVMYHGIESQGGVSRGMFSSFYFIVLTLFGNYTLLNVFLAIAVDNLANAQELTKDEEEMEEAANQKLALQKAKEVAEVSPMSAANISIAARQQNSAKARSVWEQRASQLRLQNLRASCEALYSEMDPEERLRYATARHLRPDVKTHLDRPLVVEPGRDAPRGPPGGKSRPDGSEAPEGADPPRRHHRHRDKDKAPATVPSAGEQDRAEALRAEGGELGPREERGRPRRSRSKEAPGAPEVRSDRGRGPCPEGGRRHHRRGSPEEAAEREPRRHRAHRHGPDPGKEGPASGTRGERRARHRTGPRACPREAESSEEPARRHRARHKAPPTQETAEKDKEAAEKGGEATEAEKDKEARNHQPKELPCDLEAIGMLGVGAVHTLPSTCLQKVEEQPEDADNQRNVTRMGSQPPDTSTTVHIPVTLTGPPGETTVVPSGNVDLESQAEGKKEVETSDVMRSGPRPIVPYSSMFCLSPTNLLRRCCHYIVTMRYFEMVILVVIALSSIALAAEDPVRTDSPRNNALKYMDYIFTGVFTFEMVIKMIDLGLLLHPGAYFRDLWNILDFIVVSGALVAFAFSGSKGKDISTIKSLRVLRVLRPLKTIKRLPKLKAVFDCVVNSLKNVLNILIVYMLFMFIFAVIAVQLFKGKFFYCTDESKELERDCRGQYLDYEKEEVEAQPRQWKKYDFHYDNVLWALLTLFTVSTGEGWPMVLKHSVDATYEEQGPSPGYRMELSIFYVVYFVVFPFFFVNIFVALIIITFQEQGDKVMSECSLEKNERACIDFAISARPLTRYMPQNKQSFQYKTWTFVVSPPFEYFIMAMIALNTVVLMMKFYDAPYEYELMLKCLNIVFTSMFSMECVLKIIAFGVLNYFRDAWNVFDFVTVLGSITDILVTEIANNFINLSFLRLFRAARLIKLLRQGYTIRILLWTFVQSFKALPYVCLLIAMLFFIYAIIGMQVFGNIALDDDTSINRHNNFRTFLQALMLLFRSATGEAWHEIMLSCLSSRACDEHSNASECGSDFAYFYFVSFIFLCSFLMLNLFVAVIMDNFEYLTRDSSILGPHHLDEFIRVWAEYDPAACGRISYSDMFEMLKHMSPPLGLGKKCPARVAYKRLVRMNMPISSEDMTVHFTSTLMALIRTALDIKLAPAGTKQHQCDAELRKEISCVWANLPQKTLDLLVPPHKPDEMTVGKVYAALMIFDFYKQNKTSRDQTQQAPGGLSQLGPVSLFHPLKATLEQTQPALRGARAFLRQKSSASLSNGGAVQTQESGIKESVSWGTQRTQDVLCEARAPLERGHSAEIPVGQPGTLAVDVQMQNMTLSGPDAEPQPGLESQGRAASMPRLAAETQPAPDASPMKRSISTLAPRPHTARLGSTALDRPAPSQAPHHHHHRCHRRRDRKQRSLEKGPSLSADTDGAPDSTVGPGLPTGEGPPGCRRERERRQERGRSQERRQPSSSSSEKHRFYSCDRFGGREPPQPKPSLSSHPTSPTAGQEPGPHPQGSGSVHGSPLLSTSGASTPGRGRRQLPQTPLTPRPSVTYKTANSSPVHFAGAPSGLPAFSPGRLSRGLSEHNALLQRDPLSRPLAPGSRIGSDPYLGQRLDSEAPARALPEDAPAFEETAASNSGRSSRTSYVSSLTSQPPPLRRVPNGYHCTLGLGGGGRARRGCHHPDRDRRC
T1 sequence (P54289 25-956 partner): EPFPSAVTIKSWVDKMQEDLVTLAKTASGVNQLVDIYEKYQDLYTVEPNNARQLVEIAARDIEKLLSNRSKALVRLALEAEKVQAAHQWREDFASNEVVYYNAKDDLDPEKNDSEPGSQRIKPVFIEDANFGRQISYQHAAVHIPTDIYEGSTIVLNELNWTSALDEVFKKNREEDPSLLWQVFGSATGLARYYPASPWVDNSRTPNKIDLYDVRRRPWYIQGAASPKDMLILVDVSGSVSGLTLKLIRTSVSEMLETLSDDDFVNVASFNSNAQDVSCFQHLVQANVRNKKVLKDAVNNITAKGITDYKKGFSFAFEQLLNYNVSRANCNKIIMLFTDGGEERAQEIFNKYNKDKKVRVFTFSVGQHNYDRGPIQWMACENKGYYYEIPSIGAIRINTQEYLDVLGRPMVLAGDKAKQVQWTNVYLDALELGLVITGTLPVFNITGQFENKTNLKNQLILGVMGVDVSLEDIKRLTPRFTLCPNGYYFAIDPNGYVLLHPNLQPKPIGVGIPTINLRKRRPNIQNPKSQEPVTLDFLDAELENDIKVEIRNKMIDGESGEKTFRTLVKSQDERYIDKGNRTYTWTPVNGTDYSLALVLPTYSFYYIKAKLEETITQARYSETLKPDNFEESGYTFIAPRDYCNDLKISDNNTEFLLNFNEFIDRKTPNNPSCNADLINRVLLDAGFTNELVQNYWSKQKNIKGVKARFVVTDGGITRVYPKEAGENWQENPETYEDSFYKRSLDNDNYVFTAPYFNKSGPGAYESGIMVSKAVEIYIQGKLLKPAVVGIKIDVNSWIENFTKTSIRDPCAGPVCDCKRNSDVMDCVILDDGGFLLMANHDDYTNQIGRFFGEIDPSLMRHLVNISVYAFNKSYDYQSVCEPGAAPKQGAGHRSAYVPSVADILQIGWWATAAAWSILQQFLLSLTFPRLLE
T1 sequence (P54289 957-1103 partner): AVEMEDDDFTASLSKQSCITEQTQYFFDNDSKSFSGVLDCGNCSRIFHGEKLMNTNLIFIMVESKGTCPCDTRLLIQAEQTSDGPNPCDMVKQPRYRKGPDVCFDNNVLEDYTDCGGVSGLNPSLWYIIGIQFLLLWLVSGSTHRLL
T1 sequence (Q02641 whole entry partner): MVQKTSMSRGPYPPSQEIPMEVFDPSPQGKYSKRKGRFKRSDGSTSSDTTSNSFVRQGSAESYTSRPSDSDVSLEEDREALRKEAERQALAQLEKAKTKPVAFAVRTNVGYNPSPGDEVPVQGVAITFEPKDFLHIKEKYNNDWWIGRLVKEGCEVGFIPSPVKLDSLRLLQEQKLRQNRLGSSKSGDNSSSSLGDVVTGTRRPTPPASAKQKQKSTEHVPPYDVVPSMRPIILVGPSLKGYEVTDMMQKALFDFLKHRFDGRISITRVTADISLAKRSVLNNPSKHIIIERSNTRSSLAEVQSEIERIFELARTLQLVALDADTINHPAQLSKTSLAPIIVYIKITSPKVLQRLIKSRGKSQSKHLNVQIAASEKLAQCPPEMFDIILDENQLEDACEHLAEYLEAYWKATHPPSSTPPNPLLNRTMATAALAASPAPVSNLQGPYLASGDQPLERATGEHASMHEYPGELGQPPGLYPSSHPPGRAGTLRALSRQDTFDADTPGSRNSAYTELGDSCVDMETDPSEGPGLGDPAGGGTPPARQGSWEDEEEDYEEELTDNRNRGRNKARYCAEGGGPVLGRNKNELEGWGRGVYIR
Protocol: (§1) Ovary was removed from the abdominal cavity of Xenopus laevis and treated with collagenase to remove follicle covering the oocyte (Kinoshita et al., J. Biol. Chem. 276, 28731-28738 (2001)). A combination of three kinds of mRNAs (16.7 ng each) of voltage-dependent calcium channel subunits α1A, α1B or α1E of rabbit and human α2δ1 and β1b (prepared according to the method described in Kinoshita et al., supra or a similar method) was mixed and injected into the oocyte and this was incubated in modified Birth's saline (88 mM NaCl, 1 mM KCl, 0.41 mM CaCl2, 0.33 mM Ca(NO3)2, 0.82 mM MgSO4, 2.4 mM NaHCO3, 7.5 mM Tris-HCl, 10 U/ml penicillin, 10 μg/ml streptomycin, pH 7.6) at 22° C. for 2 to 4 days.
(§2) The oocyte prepared in the above was placed in a chamber filled with a Ba^2+-containing recording liquid (10 mM Ba(OH)2, 90 mM NaOH, 2 mM KOH, 5 mM Hepes, 0.3 mM niflumic acid, methanesulfonic acid, pH 7.4) and fixed at −80 mV using two glass electrodes. A test pulse (200 ms width) toward 0 mV was applied at 30 second intervals and the whole-cell membrane current was measured. A +100 mV depolarization prepulse (100 ms width) that ends before 40 ms was applied every other pulse to eliminate the effect of G protein βγ subunit that binds with Ca^2+ channel to suppress opening (Kinoshita et al., supra). Based on the Ba^2+ current (IBa) as a Ca^2+ channel current, the leak current was corrected by P/4 protocol. N-(4-Acetyl-1-piperazinyl)-p-fluorobenzamide monohydrate (hereinafter to be also referred to as a test compound) was dissolved in the recording liquid containing Ba^2+ and applied.

[2] = target: T2, α1A channel (voltage-dependent calcium channel α1A with α2δ1 and β1b) (Oryctolagus cuniculus, UniProt P27884); assay: two electrode voltage-clamp, Ba2+ current in Xenopus oocytes expressing α1A channel; conditions: 100 nM test compound; 0 mV, 200 ms test pulse; Xenopus oocyte
T2 construct: expressed in transfected cells; host or cells: Xenopus laevis oocytes injected with mRNAs
Protocol: as §1
as §2, with “Based on the Ba^2+ current (IBa) as a Ca^2+ channel current, the leak current was corrected by P/4 protocol. N-(4-Acetyl-1-piperazinyl)-p-fluorobenzamide monohydrate (hereinafter to be also referred to as a test compound) was dissolved in the recording liquid containing Ba^2+ and applied.” left out

[3] = target: T3, α1E channel (voltage-dependent calcium channel α1E with α2δ1 and β1b) (Oryctolagus cuniculus, UniProt Q02343); assay: two electrode voltage-clamp, Ba2+ current in Xenopus oocytes expressing α1E channel; conditions: 100 nM test compound; 0 mV, 200 ms test pulse; Xenopus oocyte
T3 construct: expressed in transfected cells; host or cells: Xenopus laevis oocytes injected with mRNAs
Protocol: as §1
as §2, with “Based on the Ba^2+ current (IBa) as a Ca^2+ channel current, the leak current was corrected by P/4 protocol. N-(4-Acetyl-1-piperazinyl)-p-fluorobenzamide monohydrate (hereinafter to be also referred to as a test compound) was dissolved in the recording liquid containing Ba^2+ and applied.” left out

CC(=O)N1CCN(NC(=O)c2ccc(F)cc2)CC1.O [test compound, N-(4-Acetyl-1-piperazinyl)-p-fluorobenzamide monohydrate]
effect on α1B channel current ([1]; 100 nM test compound, 0 mV, 200 ms test pulse, Xenopus oocyte): increase in the current | influence on the voltage-dependency of α1B channel activation/inactivation ([1]; 100 nM test compound, varied depolarization stimulating potential and steady inactive state): almost no influence | α1B channel current after return into basal solution and washing ([1]; after 100 nM test compound, washed): fell to the same level as that before the treatment | potentiation of the current amplitude, channel specificity and concentration range ([1]; various concentrations, compared with α1A and α1E channels): α1B channel-specific potentiation of the current amplitude in a relatively narrow concentration range | effect on α1A channel current [2]: almost no effect | effect on α1E channel current [3]: almost no effect
